# According to paper PMC5522078, “Discovery and characterization of small molecules targeting the DNA-binding ETS domain of ERG in prostate cancer” (Oncotarget, 2017):
# Read-outs that look alike come from different tables or passages of the source.
# Key:
# ERG = target: T1, ERG (Homo sapiens, UniProt P11308); experiment: Dual reporter luciferase assay (pETS-luc) in PNT1B-ERG cells; assay type: cell-based; details: 0.1-100 μM, 48 h treatment
# T1 construct: expressed in transfected cells; host or cells: PNT1B-ERG (immortalized prostatic epithelial PNT1B cells stably overexpressing ERG)
# T1 sequence (P11308 1-479): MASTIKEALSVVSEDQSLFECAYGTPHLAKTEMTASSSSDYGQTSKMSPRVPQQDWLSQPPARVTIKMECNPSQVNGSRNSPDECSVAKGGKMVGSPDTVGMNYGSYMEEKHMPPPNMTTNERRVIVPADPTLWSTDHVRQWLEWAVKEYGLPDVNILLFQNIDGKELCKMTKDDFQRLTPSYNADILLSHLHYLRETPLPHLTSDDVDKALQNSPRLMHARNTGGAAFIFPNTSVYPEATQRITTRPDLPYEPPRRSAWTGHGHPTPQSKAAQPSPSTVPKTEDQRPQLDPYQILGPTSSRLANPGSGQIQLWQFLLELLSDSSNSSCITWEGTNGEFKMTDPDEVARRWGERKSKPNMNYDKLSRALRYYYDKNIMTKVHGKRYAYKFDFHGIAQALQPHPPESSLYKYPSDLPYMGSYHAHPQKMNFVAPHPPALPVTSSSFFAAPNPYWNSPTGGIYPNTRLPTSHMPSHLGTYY
# Experimental: All of the compounds selected from the virtual screening were tested in a luciferase-based ERG-responsive reporter assay, using two ERG-overexpressing cell lines, VCaP and PNT1B-ERG, previously developed in house. […] Data were normalized first to Renilla luciferase and then to the DMSO-media control on each plate, unless otherwise stated. Initial hit compounds were identified as those with an average normalized luciferase reading (firefly luciferase/Renilla luciferase readings) that is 60% or less of the average normalized luciferase reading of the DMSO-media control (i.e. 40% or more reduction of luciferase activity) at 10 μM. Representative example of raw Renilla luciferase readings presented in Supplementary Figure 9B. The luciferase assays were repeated for each lead compound under multiple concentrations (0.1 to 100 μM) to establish a dose-dependent response and an IC50 value. AR reporter assay was performed as previously described.
# [1] = Compound solubility and stability (LC-PDA-MS); assay type: physicochemical
# Experimental: This […] […] Data was analyzed using FlowJo Eppendorf tubes. Saturated PBS samples were further software (TreeStar, USA). […] After 24 h, plates were treated with vehicle control, […] and a Quattro Premier (Waters). […] […] diluting stocks (50 mM in DMSO) 1000x in Methanol (standard), PBS, or media. Resulting solutions were clarified by centrifugation and an aliquot of the supernatant was extracted with 2 volumes acetonitrile. VPC-18005 solubility determined as fraction remaining as quantified by LC-PDA-MS versus the methanol solution as standard.
# PNT1B-ERG cells [2] = experiment: MTS cell viability assay, PNT1B-ERG; assay type: cell-based, human; details: 72 h
# Experimental: (§1) 3-(4,5-dimethylthiazol-2-yl)-5-(3-carboxymethoxyp henyl)-2-(4-sulfophenyl)-2H-tetrazolium, inner salt (MTS). Cells were seeded at a density of 3000 cells per well (except VCaP at 20,000/well) in 100 μL of appropriate media in 96 well culture dishes. Twenty four hours later, 100 μL of medium containing vehicle control or compounds. Each treatment was prepared in triplicate. After a 72 h treatment, cellular viability was assessed using CellTiter 96 ® Aqueous One Solution Cell Proliferation Assay reagent (Promega) according to the manufacturer's instructions. Values were normalized to the DMSO control.
# PC3 cells = experiment: MTS cell viability assay, PC3; assay type: cell-based, human; details: 72 h
# Experimental: as §1
# ERG-ETS/DNA complex = target: T2, ERG-ETS/DNA complex (Homo sapiens, UniProt P11308); experiment: EMSA competition, purified ERG-ETS domain and dsDNA; assay type: binding; details: for Disruption of recombinant ERG-ETS/DNA complex formation: up to 8 mM
# T2 construct: A pET28a plasmid encoding residues 307–400 of the ERG-ETS domain; His6 (cleaved yes); made in house; host or cells: E. coli BL21 (λDE3)
# T2 sequence (P11308 307-400): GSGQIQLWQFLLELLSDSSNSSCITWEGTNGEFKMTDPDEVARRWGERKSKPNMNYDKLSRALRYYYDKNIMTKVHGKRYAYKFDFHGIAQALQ
# Experimental: To prepare the probe for the gel shift assay, equal amounts (200 nM) of Alexa-488 fluorophore-labeled DNAs ([NT] and its complement) were mixed, heated to 95°C for 30 minutes, and then slowly cooled to 25°C in several hours. […] The gel was scanned with Typhoon 9200 Imager equipped with blue laser to excite at 490 nm and fluorescence was measured at 520 nm. The scanned image was analyzed with Image J [48]. […] The result of this initial study was used to set the molar ratio of ERG-ETS domain:DNA in subsequent competition assays with VPC-18005. […] The data were fit to the equation for competitive binding, fb,i = [ERG]/([ERG] + KD{1 + [VPC-18005]i/KI}), where KI is the inhibitor dissociation constant and the fraction bound, fb,i, was calculated the intensity of the bound DNA band at each titration point relative to that without added VPC-18005. A control experiment was carried out by titrating with equivalent quantities of DMSO.
# PNT1B-ERG cells [3] = experiment: Real time cell migration (xCELLigence), PNT1B cells; assay type: cell-based, human; details: 5 μM
# Experimental: Cell migration was monitored using CIM-16 migration plates via the xCELLigence platform (ACEA). FBS-supplemented media (160 μL) was added to the lower chamber of the plate and incubated at RT for 30 min. The upper chamber was then mounted and 30 μL of serum free media (SFM) was added to each well and left to equilibrate in the incubator for 1 h at 37°C. After the incubation, a background reading was taken for each well. […] Real time readings of cell index values were recorded initially every 5 min until the end of the experiment (48 hr).
# zebrafish embryos = experiment: Compound toxicity to zebrafish embryos; assay type: in vivo
# Experimental for VCaP cells: (media), and phosphate buffered saline (PBS) and vortex Cells were detached by treatment with Accutase
# The (Gibco), then underwent APC BrdU Flow Kit protocol
# Cells were analysed on a FACSCanto™
# Saturated PBS samples were further software (TreeStar, USA). […] Aliquots of these analysed statistically by Two-Way ANOVA.
smiles,measurement,setting,value
"CC(C)c1ccc(C=N/N=C2\NC(=O)[C@@H](CC(=O)O)S2)cc1 (stereo in doubt) [VPC-18005, 2-((Z)-2-(((Z)-4-isopropylbenzylidene)hydrazono)-4-oxothiazolidin-5-yl)acetic acid]",IC50,ERG,3 µM
same,solubility at 1 h,"[1]; cell culture media (RPMI + 5% charcoal stripped serum), plasma or biological fluid, kinetic from dmso stock, RPMI + 5% CSS, 50 mM DMSO stock diluted 1,000x",> 50 µM
same,Media solubility,[1]; media,soluble in media
same,Stability in media (fraction remaining),"[1]; media, 3 days, RT",93%
same,"Effect on cell viability (MTS), PNT1B-ERG",PNT1B-ERG cells [2]; 0.2–25 μM,did not decrease viability
same,"Effect on cell viability (MTS), PC3",PC3 cells; 0.2–25 μM,did not decrease viability
same,Ki,"ERG-ETS/DNA complex; 4 nM ERG-ETS domain, 1 nM dsDNA, read-out: KI, disruption of ERG-ETS/DNA complex formation",~250 µM
same,Disruption of recombinant ERG-ETS/DNA complex formation,ERG-ETS/DNA complex,dose-dependent disruption
same,Rate of migration of PNT1B-ERG cells,"PNT1B-ERG cells [3]; 24 h exposure, relative to vehicle",significantly reduced
same,Concentration at which embryos remained viable,zebrafish embryos; 72 h,up to 50 μM
same,Impact on cell cycle distribution,VCaP cells,did not impact cell cycle distribution
"COc1ccc(C(=O)CC2(O)C(=O)Nc3c(Cl)ccc(Cl)c32)cc1 (centres unmarked) [YK-4-279, reference compound]",IC50,ERG,5 µM
same,Media solubility,[1],soluble
same,Stability in media (fraction remaining),[1]; 72 h,60%
same,"Doses with inhibition of cell viability (MTS), PNT1B-ERG",PNT1B-ERG cells [2],≥ 5 µM
same,"Doses with inhibition of cell viability (MTS), PC3",PC3 cells,≥ 5 µM
same,Disruption of recombinant ERG-ETS/DNA complex formation,ERG-ETS/DNA complex,did not disrupt binding
same,Cytotoxicity in migration assay,PNT1B-ERG cells [3]; PNT1B-MOCK and PNT1B-ERG cells,cytotoxicity in both cell lines
same,Concentrations at which embryos exhibited toxicity,zebrafish embryos,> 10 µM
same,G0–G1 phase population,VCaP cells; 5 and 10 μM,concomitantly reduced
